Common to all, as to format: cell-based
In series [1] the test system is Chlamydia trachomatis serovar D (strain UW-3/CX). The series is described as follows: Infectious progeny inhibition assay, C. trachomatis D. The conditions noted are these: Chlamydia trachomatis, HeLa, generation of infectious progeny EBs in HeLa cells, MOI 0.2, 36 hpi, 1 to 32 μM; read-out: IC50 (μM) Mean (95% confidence interval) Ct D. Here is the method:
(§1) Chlamydia trachomatis serovars D (strain UW-3/CX) and L2 (strain 434/Bu) were purchased from ATCC. HeLa cells purchased from ATCC were routinely cultured in DMEM supplemented with 10% heat-inactivated FBS (Sigma-Aldrich) and 10 μg/mL gentamicin at 37°C in a humidified atmosphere of 5% and were used for chlamydial propagation and cell culture experiments. EBs were purified by Renografin density gradient and stored in sucrose-phosphate-glutamate (SPG) buffer at -80°C [20]. A mouse polyclonal anti-MoPn (C. muridarum strain Nigg II) antibody, which was produced in our laboratory and cross-reacting with C. trachomatis D and L2, was used as a primary antibody for both stains detection.
(§2) Cell monolayers seeded onto coverslips in a 24-well plate were infected with C. trachomatis at a multiplicity of infection (MOI) of 0.2 inclusion-forming units (IFU) per cell. Unless noted, individual compound was added into culture medium at indicated concentrations simultaneously at the time of inoculation. 0.5% DMSO was used as negative control and 11.25 μM tetracycline (Sigma-Aldrich) as positive control. For C. trachomatis D, an additional centrifugation (900 × g at room temperature for 1 h) was applied to facilitate the infection. At 36 hours postinfection (hpi), infected cells were fixed by precooled methanol and then subjected to sequential staining processed with a primary antibody and a FITC-conjugated secondary antibody. Evans blue was used as cytoplasm counterstain. Images were shot by an Olympus IX51 fluorescence microscope.
(§3) Cells monolayers seeded in 48-well plate were infected and treated with chemicals as above. After incubation for 36 hours, infected cells were washed twice, scraped off, and lysed by sonication to release the infectious progeny EBs. Then the lysates were used to reinfect fresh cell monolayers grown in 96-well plate following 1 : 10 serial dilution. The inclusion counts were obtained by immunofluorescence staining as above to calculate the number of infectious progeny EBs in each sample. Percent inhibition was calculated based on EB counts in compound-treated samples relative to DMSO-treated negative control.
(§4) Data from the three independent experiments were presented as mean ± standard deviations (SD) and were subjected to pairwise Student's t-tests. p < 0.05 and p < 0.01 are considered statistically significant and statistically highly significant, respectively. The IC50 values, defined as the concentration of compound at which the generation of infectious progeny EBs was reduced by 50% relative to negative control, were calculated by nonlinear regression from percent inhibition data using the GraphPad Prism 5 software, and presented as mean (95% confidence interval).

Series [2] in a line: WST-1 cell viability. The conditions noted are these: human, uninfected HeLa cells, WST-1, relative to DMSO control as 100%. Here is the method:
Uninfected HeLa cells were cultured with 32 μM (the highest concentration used in antichlamydial analysis) of individual compound or 0.5% DMSO for 48 h. After 10 μL of WST-1 reagent was added, cells were incubated for an additional 1 h, and absorbance at 450 nm was recorded. The viability of compound-treated cells was calculated by the absorbance relative to that of DMSO control setting as 100% [22].

The subject of series [3] is Chlamydia trachomatis serovar L2 (strain 434/Bu). The experiment in a line: Infectious progeny inhibition assay, C. trachomatis L2. The conditions noted are these: Chlamydia trachomatis, HeLa, generation of infectious progeny EBs in HeLa cells, MOI 0.2, 36 hpi, 1 to 32 μM; read-out: IC50 (μM) Mean (95% confidence interval) Ct L2. Here is the method:
as §1, §2, §3, §4

`Brc1ccccc1C1C2CC(c3ccccc3)N(c3ccccc3)C2ON1c1ccccc1` (stereo not drawn) [Compound 7]: the values for the IC50 in series [1] and in series [3] were greater than 32 µM and 19.1 µM, respectively. Also, in series [2], the viability at 48 h, 32 µM is roughly 90%.

As for `Cc1ccc(C2CC3C(c4ccccc4Br)N(c4ccccc4)OC3N2c2ccccc2)cc1` (stereo not drawn) [Compound 11], the IC50 in series [1] is 23.5 µM; in series [3], greater than 32 µM. In addition, the viability at 48 h, 32 µM in series [2] is 99.7%.

As for `O=[N+]([O-])c1ccc(C2CC3C(c4ccccc4Br)N(c4ccccc4)OC3N2c2ccccc2)cc1` (stereo not drawn) [Compound 12], the IC50 in series [1] turned out to be 12.5 µM; in series [3] it was 17.5 µM. For the same compound, the viability at 48 h, 32 µM in series [2] is 104%.

For `Brc1ccc(C2C3CC(c4ccccc4)N(c4ccccc4)C3ON2c2ccccc2)cc1` (stereo not drawn) [Compound 3], the IC50 in series [1] was found to be 20.9 µM; in series [3], 8.67 µM. Also, the viability at 48 h, 32 µM in series [2] turned out to be 99.9%.

Regarding `Brc1ccccc1C1C2CC(c3ccccc3Br)N(c3ccccc3)C2ON1c1ccccc1` (stereo not drawn) [Compound 17], the IC50 is 27.6 µM in series [1] and greater than 32 µM in series [3]. Moreover, in series [2], the viability at 48 h, 32 µM is 114%.

On to `Fc1ccc(N2C(c3cccs3)CC3C(c4ccccc4Br)N(c4ccccc4)OC32)cc1` (stereo not drawn) [Compound 10], for which the results for the IC50 in series [1] and in series [3] were 15.4 µM and 17.4 µM, respectively. Besides, the viability at 48 h, 32 µM in series [2] is roughly 90%.

Regarding `Cc1ccc(N2C(c3ccccc3)CC3C(c4ccccc4Br)N(c4ccccc4)OC32)cc1` (stereo not drawn) [Compound 13], the IC50 in series [1] is 16.3 µM; in series [3] it was greater than 32 µM. The viability at 48 h, 32 µM in series [2] was 95.7%.

Consider `COc1ccc(N2C(c3ccccc3)CC3C(c4ccc(Br)cc4)N(c4ccccc4)OC32)cc1` (stereo not drawn) [Compound 6], for which the IC50 turned out to be 16.9 µM in series [1] and 9.08 µM in series [3]. For the same compound, the viability at 48 h, 32 µM in series [2] is roughly 90%.

With `COc1ccc(N2C(c3ccccc3)CC3C(c4ccccc4Br)N(c4ccccc4)OC32)cc1` (stereo not drawn) [Compound 4], the IC50 in series [1] is greater than 32 µM; in series [3], 11.2 µM. In series [2], the viability at 48 h, 32 µM is 97.5%.

In the case of `Fc1ccc(N2C(C3CCCCC3)CC3C(c4ccccc4Br)N(c4ccccc4)OC32)cc1` (stereo not drawn) [Compound 9], the IC50 in series [1] is 19.6 µM; in series [3], greater than 32 µM. Also, the viability at 48 h, 32 µM in series [2] came out at 96.5%.

Consider `Brc1ccccc1C1c2ccccc3cccc2N2C(c4ccccc4)CC3C2ON1c1ccccc1` (stereo not drawn) [Compound 8], for which the values for the IC50 in series [1] and in series [3] were 28.6 µM and 25.4 µM, respectively. In addition, the viability at 48 h, 32 µM in series [2] is 102%.

For `O=[N+]([O-])c1ccc(C2CC3C(c4ccccc4Cl)N(c4ccccc4)OC3N2c2ccccc2)cc1` (stereo not drawn) [Compound 15], the IC50 in series [1] came to 12.2 µM; in series [3], 9.77 µM. Moreover, in series [2], the viability at 48 h, 32 µM came out at 104%.

Regarding `COc1ccc(N2C(c3ccccc3)CC3C(c4cccc(Br)c4)N(c4ccccc4)OC32)cc1` (stereo not drawn) [Compound 5], the IC50 in series [1] is greater than 32 µM; in series [3], 15.5 µM. The viability at 48 h, 32 µM in series [2] was 95.2%.

Turning to `Brc1ccccc1C1C2CC(/C=C/c3ccccc3)N(c3ccccc3)C2ON1c1ccccc1` (stereo not drawn) [Compound 14], the values for the IC50 in series [1] and in series [3] were 16.3 µM and 16.8 µM, respectively. In series [2], the viability at 48 h, 32 µM is 98%.

For `Fc1ccc(N2C(c3cccc4ccccc34)CC3C(c4ccccc4Br)N(c4ccccc4)OC32)cc1` (stereo not drawn) [Compound 18], the IC50 was 21 µM in series [1] and greater than 32 µM in series [3]. Also, the viability at 48 h, 32 µM in series [2] was found to be 106%.

For `Cc1ccc(C2CC3C(c4ccccc4)N(c4ccccc4)OC3N2c2ccc(C)cc2)cc1` (stereo not drawn) [Compound 16], the values for the IC50 in series [1] and in series [3] were 5.93 µM and 13.5 µM, respectively. Besides, in series [2], the viability at 48 h, 32 µM worked out at 96.5%.
